From patent publication US7488826B2, “Substituted pyrroline kinase inhibitors” (Janssen Pharmaceutica N.V., priority 2003, dated 2009)

Columns and labels:
Assay type in all cases: biochemical
[1] = molecular target: T1, recombinant rabbit GSK-3β protein (Oryctolagus cuniculus, UniProt G1T8E2); experiment: Glycogen Synthase Kinase-3 Assay (33P-ATP phosphorylation of PPI-2)
T1 construct: purchased New England Biolabs
Description: Compounds were tested for the ability to inhibit recombinant rabbit GSK-3β protein using the following protocol. The test compound was added to a reaction mixture containing Protein Phosphatase Inhibitor-2 (PPI-2) (Calbiochem) (45 ng), rabbit GSK-3β protein (New England Biolabs) (0.75 units) and ^33P-ATP (1 μCi) in 50 mM Tris-HCl (pH 8.0), 10 mM MgCl2, 0.1% BSA, 1 mM DTT and 100 μM Sodium Vanadate. The mixture was reacted for 90 minutes at 30° C. to allow phosphorylation of the PPI-2 protein and then the protein in the reaction was precipitated using 10% TCA. The precipitated protein was collected on filter plates (MultiScreen-DV/Millipore), which were subsequently washed. Finally, the radioactivity was quantified using a TopCount Scintillation Counter (Packard). […] Staurosporine or Valproate, known inhibitors of GSK-3β, were used as a positive control for screening.

[2] = molecular target: PKC-α (Homo sapiens, UniProt P17252); experiment: Protein Kinase C Histone-Based Assay; settings: histone III substrate
Description: (§1) Compounds were evaluated for PKC isozyme selectivity using histone III as the substrate. PKC isozymes α, β-II or γ were added to a reaction mixture that contained 20 mM HEPES, (pH 7.4), 940 μM CaCl2, 10 mM MgCl2, 1 mM EGTA. 100 μg/mL phosphatidylserine, 20 μg/mL diacylglycerol, 30 μM ATP, […] [^33P]ATP and 200 μg/mL histone III. The reaction was incubated for 10 min at 30° C. Reactions were terminated by TCA precipitation and spotting on Whatman P81 filters. Filters were washed in 75 mM phosphoric acid and the radioactivity quantified by liquid scintillation counting.

[3] = molecular target: PKC-βII (Homo sapiens, UniProt P05771); experiment: Protein Kinase C Histone-Based Assay; settings: histone III substrate
Description: as §1

[4] = molecular target: PKC-γ (Homo sapiens, UniProt P05129); experiment: Protein Kinase C Histone-Based Assay; settings: histone III substrate
Description: as §1

PKC-βII, sequence (P05771 1-673 isoform P05771-2): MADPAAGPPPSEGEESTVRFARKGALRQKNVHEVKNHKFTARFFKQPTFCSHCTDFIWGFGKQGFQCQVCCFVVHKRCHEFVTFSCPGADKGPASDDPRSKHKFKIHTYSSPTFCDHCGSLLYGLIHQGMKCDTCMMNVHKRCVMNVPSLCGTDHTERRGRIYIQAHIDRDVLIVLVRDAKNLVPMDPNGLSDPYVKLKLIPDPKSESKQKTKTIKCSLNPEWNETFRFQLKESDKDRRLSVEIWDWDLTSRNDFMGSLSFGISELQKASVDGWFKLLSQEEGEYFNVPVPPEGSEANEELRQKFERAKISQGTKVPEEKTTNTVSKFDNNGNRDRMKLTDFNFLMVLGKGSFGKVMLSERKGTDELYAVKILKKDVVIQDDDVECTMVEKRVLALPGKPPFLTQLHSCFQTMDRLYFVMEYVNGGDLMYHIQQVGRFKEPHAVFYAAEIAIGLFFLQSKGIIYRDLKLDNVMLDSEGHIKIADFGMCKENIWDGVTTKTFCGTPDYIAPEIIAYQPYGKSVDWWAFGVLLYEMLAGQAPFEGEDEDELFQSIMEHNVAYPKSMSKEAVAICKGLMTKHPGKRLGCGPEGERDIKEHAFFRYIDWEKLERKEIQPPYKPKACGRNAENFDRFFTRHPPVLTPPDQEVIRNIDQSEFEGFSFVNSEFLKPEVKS
T1 sequence (G1T8E2 1-432): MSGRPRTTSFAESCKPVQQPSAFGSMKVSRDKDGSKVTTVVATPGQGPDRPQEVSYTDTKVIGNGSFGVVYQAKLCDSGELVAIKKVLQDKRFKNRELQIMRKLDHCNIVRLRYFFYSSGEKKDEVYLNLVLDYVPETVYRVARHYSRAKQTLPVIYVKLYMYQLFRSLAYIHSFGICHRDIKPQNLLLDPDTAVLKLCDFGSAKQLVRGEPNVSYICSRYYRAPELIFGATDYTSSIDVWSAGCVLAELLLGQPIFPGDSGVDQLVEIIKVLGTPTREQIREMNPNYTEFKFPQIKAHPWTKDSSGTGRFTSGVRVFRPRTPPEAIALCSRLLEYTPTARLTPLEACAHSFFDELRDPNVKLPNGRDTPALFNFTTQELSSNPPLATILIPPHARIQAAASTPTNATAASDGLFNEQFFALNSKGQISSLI

Row | SMILES | IC50 [1] | IC50 [2] | inhibition at 1 µM [3] | IC50 [4] | inhibition at 10 µM ([2]; @10 μM) | inhibition at 10 µM ([4]; @10 μM)
1 | COCCCn1cc(C2=C(c3ccccc3Cl)C(=O)NC2=O)c2cnccc21 [Cpd 2, 3-(2-Chlorophenyl)-4-[1-(3-methoxypropyl)-1H-pyrrolo[3,2-c]pyridin-3-yl]-1H-pyrrole-2,5-dione] | 20 nM | 2510 nM | 28% | 4210 nM | – | –
2 | COCCCn1cc(C2=C(c3ccccc3OC)C(=O)NC2=O)c2cnccc21 [Cpd 1, 3-(2-Methoxyphenyl)-4-[1-(3-methoxypropyl)-1H-pyrrolo[3,2-c]pyridin-3-yl]-1H-pyrrole-2,5-dione] | 1.8 nM | – | 22% | – | 31% | 25%
